| SMILES | melting point |
| --- | --- |
| N#CCC(=O)N[C@H]1CC[C@H](CCN2CCN(c3cccc4ncccc34)CC2)CC1 [Example 239, 2-Cyano-N-{4-[2-(4-quinolin-5-ylpiperazin-1-yl)ethyl]cyclohexyl}acetamide] | 220 °C |
| N#CCCC(=O)N[C@H]1CC[C@H](CCN2CCN(c3ccc(F)c(Cl)c3F)CC2)CC1 [Example 732, N-(4-{2-[4-(3-Chloro-2,4-difluorophenyl)piperazin-1-yl]ethyl}cyclohexyl)-3-cyanopropanamide] | 190 °C |
| CC(=O)CN1CCC(CCN2CCN(c3cccc(Cc4ccccc4)c3)CC2)CC1.Cl.Cl | 253 °C |
| CS(=O)(=O)c1cccc(N2CCN(CC[C@H]3CC[C@H](NC(=O)CC(F)(F)F)CC3)CC2)c1 [Example 452, 3,3,3-Trifluoro-N-(4-{2-[4-(3-methanesulfonylphenyl)piperazin-1-yl]ethyl}cyclohexyl)-propanamide] | 173 °C |
| O=C(N[C@H]1CC[C@H](CCN2CCN(c3cccc(C(F)(F)F)c3F)CC2)CC1)C1=CCCC1 [Example 458, Cyclopent-1-enecarboxylic acid (4-{2-[4-(2-fluoro-3-trifluoro-methylphenyl)piperazin-1-yl]ethyl}cyclohexyl) amide] | 190 °C |
| COCC(=O)N[C@H]1CC[C@H](CCN2CCN(c3cc(C(C)(C)C)nc(C(C)(C)C)n3)CC2)CC1 [Example 122, N-(4-{2-[4-(2,6-Di-tert-butylpyrimidin-4-yl)piperazin-1-yl]ethyl}cyclohexyl)-2-methoxyacetamide] | 130 °C |
| O=C(N[C@H]1CC[C@H](CCN2CCN(c3cccc(C(F)(F)F)c3)CC2)CC1)C1CCCO1 (some centres unmarked) [Example 40, Tetrahydrofuran-2-carboxylic acid (4-{2-[4-(3-trifluoromethylphenyl)piperazin-1-yl]ethyl}cyclohexyl)amide] | 135 °C |
| CCc1ccc(F)c(N2CCN(CC[C@H]3CC[C@H](NC(=O)CCCC#N)CC3)CC2)c1 [Example 674, 4-Cyano-N-(4-{2-[4-(5-ethyl-2-fluorophenyl)piperazin-1-yl]ethyl}cyclohexyl)butanamide] | 153 °C |
| O=C(CC(F)(F)F)N[C@H]1CC[C@H](CCN2CCN(c3cccc(C(F)(F)F)c3F)CC2)CC1 [Example 256, 3,3,3-Trifluoro-N-(4-{2-[4-(2-fluoro-3-trifluoromethylphenyl)-piperazin-1-yl]ethyl}cyclohexyl)-propanamide] | 198 °C |
| CC(=O)CN1CCC(CCN2CCN(c3cccc(OC(F)(F)F)c3)CC2)CC1.Cl.Cl | 275 °C |
| CC(=O)C(=O)N1CCC(CCN2CCN(c3cccc4c3CCC4)CC2)CC1.Cl | 225 °C |
| O=C(CC(F)(F)F)N[C@H]1CC[C@H](CCN2CCN(c3ccc(Cl)cc3)CC2)CC1 [Example 480, N-(4-{2-[4-(4-Chlorophenyl)-piperazin-1-yl]ethyl}cyclohexyl)-3,3,3-trifluoropropanamide] | 234 °C |
| CC(=O)CN1CCC(CCN2CCN(c3ccc4scnc4c3)CC2)CC1 [Example 264, 1-{4-[2-(4-Benzothiazol-5-ylpiperazin-1-yl)ethyl]piperidin-1-yl}propan-2-one] | 110 °C |
| N#CCC(=O)N[C@H]1CC[C@H](CCN2CCN(c3ccc(Cl)c(C(F)(F)F)c3)CC2)CC1 [Example 360, N-(4-{2-[4-(4-Chloro-3-trifluoromethylphenyl)piperazin-1-yl]ethyl}cyclohexyl)-2-cyanoacetamide] | 187 °C |
| CS(=O)(=O)c1cccc(N2CCN(CC[C@H]3CC[C@H](NC(=O)CC#N)CC3)CC2)c1 [Example 351, 2-Cyano-N-(4-{2-[4-(3-methanesulfonylphenyl)piperazin-1-yl]ethyl}cyclohexyl)acetamide] | 195 °C |
| CC(=O)c1cccc(N2CCN(CC[C@H]3CC[C@H](NC(=O)CCCC#N)CC3)CC2)c1 [Example 375] | 181 °C |
| N#CCCC(=O)N1CCC(CCN2CCN(c3cccc(Cl)c3Cl)CC2)CC1 [Example 733, 4-(4-{2-[4-(2,3-Dichlorophenyl)piperazin-1-yl]ethyl}piperidin-1-yl)-4-oxobutanonitrile] | 94 °C |
| CC(=O)CN1CCC(CCN2CCN(c3cc(C)ccc3F)CC2)CC1.Cl.Cl | 275 °C |
| N#CCC(=O)N[C@H]1CC[C@H](CCN2CCN(c3ccccc3Cl)CC2)CC1 [Example 131, N-(4-{2-[4-(2-Chlorophenyl)-piperazin-1-yl]ethyl}cyclohexyl)-2-cyanoacetamide] | 194 °C |
| CC(=O)CN1CCC(CCN2CCN(c3cc(F)c(C(F)(F)F)c(F)c3)CC2)CC1.Cl.Cl | 80 °C |
| Cc1cccc(C2=CCN(CC[C@H]3CC[C@H](NC(=O)C4=CCCC4)CC3)CC2)c1C#N | 183 °C |
| COCC(=O)N[C@H]1CC[C@H](CCN2CCN(c3ccccc3C#N)CC2)CC1 [Example 58, N-(4-{2-[4-(2-Cyanophenyl)-piperazin-1-yl]ethyl}cyclohexyl)-2-methoxyacetamide] | 113 °C |
| CC(=O)CN1CCC(CCN2CCN(c3ccc(C)c(F)c3)CC2)CC1.Cl.Cl | 276 °C |
| N#CCC(=O)N[C@H]1CC[C@H](CCN2CC=C(c3cccc(C(F)(F)F)c3F)CC2)CC1 | 171 °C |
| N#CCC(=O)N[C@H]1CC[C@H](CCN2CCN(c3ccc4c(c3)CCCC4)CC2)CC1 [Example 211, 2-Cyano-N-(4-{2-[4-(5,6,7,8-tetrahydronaphthalen-2-yl)piperazin-1-yl]ethyl}cyclohexyl)acetamide] | 200 °C |
| CCc1cccc(N2CCN(CC[C@H]3CC[C@H](NC(=O)CC(F)(F)F)CC3)CC2)c1 [Example 250, N-(4-{2-[4-(3-Ethylphenyl)-piperazin-1-yl]ethyl}cyclohexyl)-3,3,3-trifluoropropanamide] | 154 °C |

Now from value to compound:

| melting point | SMILES |
| --- | --- |
| 201 °C | Cc1ccc(N2CCN(CC[C@H]3CC[C@H](NC(=O)C4=CCCC4)CC3)CC2)cc1C [Example 507, Cyclopent-1-enecarboxylic acid (4-{2-[4-(3,4-dimethylphenyl)-piperazin-1-yl]ethyl}cyclohexyl) amide] |
| 105 °C | COC(C)(C)C(=O)N[C@H]1CC[C@H](CCN2CCN(c3cccc(C(F)(F)F)c3)CC2)CC1 [Example 77, 2-Methoxy-2-methyl-N-(4-{2-[4-(3-trifluoromethylphenyl)-piperazin-1-yl]ethyl}cyclohexyl)-propanamide] |
| 132 °C | COCC(=O)N[C@H]1CC[C@H](CCN2CCN(c3cc(F)cc(Cl)c3)CC2)CC1 [Example 742, N-(4-{2-[4-(3-Chloro-5-fluorophenyl)piperazin-1-yl]ethyl}cyclohexyl)-2-methoxyacetamide] |
| 177 to 178 °C | Cc1ccc(Cl)cc1N1CCN(CC[C@H]2CC[C@H](NC(=O)CC(F)(F)F)CC2)CC1 [Example 179, N-(4-{2-[4-(5-Chloro-2-methylphenyl)piperazin-1-yl]ethyl}cyclohexyl)-3,3,3-trifluoropropanamide] |
| 214 °C | CS(=O)(=O)CC(=O)N[C@H]1CC[C@H](CCN2CCN(c3cccc(F)c3F)CC2)CC1 [Example 426, N-(4-{2-[4-(2,3-Difluorophenyl)-piperazin-1-yl]ethyl}cyclohexyl)-2-methanesulfonylacetamide] |
| 172 °C | Cc1ccc(N2CCN(CC[C@H]3CC[C@H](NC(=O)CCCC#N)CC3)CC2)cc1C [Example 505, 4-Cyano-N-(4-{2-[4-(3,4-dimethylphenyl)piperazin-1-yl]ethyl}cyclohexyl)butanamide] |
| 270 °C | CC(=O)CN1CCC(CCN2CCN(c3cccc(Cl)c3F)CC2)CC1.Cl.Cl |
| 285 °C | CC(=O)CN1CCC(CCN2CCN(c3ccccc3CC(C)C)CC2)CC1.Cl.Cl |
| 205 °C | CCc1cccc(N2CCN(CC[C@H]3CC[C@H](NC(=O)CCCC#N)CC3)CC2)c1.Cl |
| 154 °C | O=C(CC1C=CCC1)N[C@H]1CC[C@H](CCN2CCN(c3cccc(C(F)(F)F)c3)CC2)CC1 (some centres unmarked) [Example 373, 2-Cyclopent-2-enyl-N-(4-{2-[4-(3-trifluoromethylphenyl)piperazin-1-yl]ethyl}cyclohexyl)acetamide] |
| 92 °C | CC(=O)CN1CCC(CCN2CCN(c3ccc(F)c(Cl)c3)CC2)CC1 [Example 592, 1-(4-{2-[4-(3-Chloro-4-fluorophenyl)piperazin-1-yl]ethyl}piperidin-1-yl)propan-2-one] |
| 187 °C | CC(=O)NCC(=O)N[C@H]1CC[C@H](CCN2CCN(c3cccc(C(F)(F)F)c3)CC2)CC1 [Example 105, 2-Acetylamino-N-(4-{2-[4-(3-trifluoromethylphenyl)piperazin-1-yl]ethyl}cyclohexyl)acetamide] |
| 101 °C | CC(=O)CN1CCC(CCN2CC=C(c3ccc(Cl)cc3)CC2)CC1 |
| 184 °C | N#CCCCC(=O)N[C@H]1CC[C@H](CCN2CCN(c3cccc(C#N)c3)CC2)CC1 [Example 448, 4-Cyano-N-(4-{2-[4-(3-cyanophenyl)piperazin-1-yl]ethyl}cyclohexyl)butanamide] |
| 191 °C | CC(C)Oc1cccc(N2CCN(CC[C@H]3CC[C@H](NC(=O)CC#N)CC3)CC2)c1.Cl |
| 113 °C | CC(=O)CN1CCC(CCN2CCN(c3ccc4c(c3)OCO4)CC2)CC1 [Example 584, 1-{4-[2-(4-Benzo[1,3]dioxol-5-ylpiperazin-1-yl)ethyl]piperidin-1-yl}propan-2-one] |
| 185 °C | N#CCC(=O)N[C@H]1CC[C@H](CCN2CC=C(c3cccc(C#N)c3)CC2)CC1 |
| 275 °C | CC(=O)CN1CCC(CCN2CCN(c3cc(C)cc(C)c3)CC2)CC1.Cl.Cl |
| 164 °C | N#CCCC(=O)N[C@H]1CC[C@H](CCN2CCN(c3cc(C(F)(F)F)ccc3F)CC2)CC1 [Example 668, 3-Cyano-N-(4-{2-[4-(2-fluoro-5-trifluoromethylphenyl)piperazin-1-yl]ethyl}cyclohexyl)propanamide] |
| 135 °C | CCc1cccc(N2CCN(CC[C@H]3CC[C@H](NC(=O)C4=CCCCO4)CC3)CC2)c1 [Example 561, 5,6-Dihydro-4H-pyran-2-carboxylic acid (4-{2-[4-(3-ethylphenyl)piperazin-1-yl]ethyl}cyclohexyl) amide] |
| 166 °C | Cc1ccccc1C1=CCN(CC[C@H]2CC[C@H](NC(=O)CC#N)CC2)CC1 |

From patent US8802678B2, “Carbonylated (aza) cyclohexanes as dopamine D3 receptor ligands” (Bioprojet, priority 2006, dated 2014)
